The supplement of paper PMC11208160

Assays:
[1] = recombinant barcode read abundance after kanamycin selection (control-corrected) (log10(CPM+1)); higher = more efficient recombination; sequences stand for … in AGTGCAGAGAAAATCGGCCAGTTTTCTCTGCCTGCAGTCCGCATGCCGT…ATTTATGCAGCGGACTGCCTTTCTCCCAAAGTGATAAACCGGACAGTATCATGGACCGGTTTTCCCGGTAATCCGTATTTGCAAGGTTGGTTTCACT; site = the 11-nt target
Procedure: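 Same pooled E. coli target screen (IS621 bridge recombinase, kanamycin selection, control-corrected CPM, mean of 2 biological replicates). Here the two core-binding nucleotides of the LTG and RTG of the bridge RNA target-binding loop are mutated. Target and donor CT cores are held constant, and the other 9 guide positions match the target. The target is read from the library oligo sequence. Molecule = full bridge RNA written as DNA: nt 1-80 from the library oligo, rest WT scaffold.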

[2] = recombinant barcode read abundance after kanamycin selection (control-corrected) (log10(CPM+1)); higher = more efficient recombination; sequences stand for … in AGTGCAGAGAAAATCGGCCAGTTTTCTCTGCCTGCAGTCCGCATGCCGT…AGATTTATGCAGCGGACTGCCTTTCTCCCAAAGTGATAAACCGGACAGTATCATGGACCGGTTTTCCCGGTAATCCGTATTTGCAAGGTTGGTTTCACT; site = the 11-nt target
Outline: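 Pooled E. coli screen pairing targets with IS621 bridge RNA target-binding loops. Each oligo (promoter, target, barcode, J23119-driven first 104 bridge RNA bases) was Gibson-cloned into a vector with the remaining 73 bp and T7-inducible recombinase, then co-electroporated with a donor plasmid. Two replicates each were plated on chloramphenicol/ampicillin LB agar (control) or chloramphenicol/ampicillin/kanamycin with 0.1 mM IPTG. Recombination efficiency is recombinant-junction barcode counts as CPM, averaged, control-corrected, reported as log10(CPM+1).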

Row | Sequence | recombinant barcode read abundance (log10) [1] | recombinant barcode read abundance (log10) [2]
1 | AAACACAACTGGGTTCTAACCTGTTGCCTAG [AAACACACTAG_LTGcore_AC_RTGcore_CT] (site AAACACACTAG) (LTG core: AC, RTG core: CT) | 0.0236 | –
2 | AAACACAAGTGGGTTCTAACCTGTTGCCTCT [AAACACACTAG_LTGcore_AG_RTGcore_AG] (site AAACACACTAG) (LTG core: AG, RTG core: AG) | 0.196 | –
3 | AAACACACATGGGTTCTAACCTGTTGCCTTG [AAACACACTAG_LTGcore_CA_RTGcore_CA] (site AAACACACTAG) (LTG core: CA, RTG core: CA) | 0.341 | –
4 | AAACACACTTGGGTTCTAACCTGTTGCCTAC [AAACACACTAG_LTGcore_CT_RTGcore_GT] (site AAACACACTAG) (LTG core: CT, RTG core: GT) | 0.217 | –
5 | AAACACACTTGGGTTCTAACCTGTTGCCTAG [AAACACACTAG_LTGcore_CT_RTGcore_CT] (site AAACACACTAG) (LTG core: CT, RTG core: CT) | 2 | –
6 | AAACACACTTGGGTTCTAACCTGTTGCCTCA [AAACACACTAG_LTGcore_CT_RTGcore_TG] (site AAACACACTAG) (LTG core: CT, RTG core: TG) | 0.985 | –
7 | AAACACACTTGGGTTCTAACCTGTTGCCTTA [AAACACACTAG_LTGcore_CT_RTGcore_TA] (site AAACACACTAG) (LTG core: CT, RTG core: TA) | 0.852 | –
8 | AAACACATCTGGGTTCTAACCTGTTGCCTGA [AAACACACTAG_LTGcore_TC_RTGcore_TC] (site AAACACACTAG) (LTG core: TC, RTG core: TC) | 0.505 | –
9 | AAACAGTAATGGGTTCTAACCTGTTGCCTAG [AAACAGTCTAG_LTGcore_AA_RTGcore_CT] (site AAACAGTCTAG) (LTG core: AA, RTG core: CT) | 0.01 | –
10 | AAACAGTACTGGGTTCTAACCTGTTGCCTAG [AAACAGTCTAG_LTGcore_AC_RTGcore_CT] (site AAACAGTCTAG) (LTG core: AC, RTG core: CT) | 0.0247 | –
11 | AAACAGTCATGGGTTCTAACCTGTTGCCTAG [AAACAGTCTAG_LTGcore_CA_RTGcore_CT] (site AAACAGTCTAG) (LTG core: CA, RTG core: CT) | 1.38 | –
12 | AAACAGTCATGGGTTCTAACCTGTTGCCTTG [AAACAGTCTAG_LTGcore_CA_RTGcore_CA] (site AAACAGTCTAG) (LTG core: CA, RTG core: CA) | 0.25 | –
13 | AAACAGTCGTGGGTTCTAACCTGTTGCCTCG [AAACAGTCTAG_LTGcore_CG_RTGcore_CG] (site AAACAGTCTAG) (LTG core: CG, RTG core: CG) | 0.227 | –
14 | AAACAGTCTTGGGTTCTAACCTGTTGCCTAT [AAACAGTCTAG_LTGcore_CT_RTGcore_AT] (site AAACAGTCTAG) (LTG core: CT, RTG core: AT) | 1.32 | –
15 | TTGAACCCTTGGGTTCTAACCTGTTGCGT (site TTGAACCCTAC) | – | 1.63
16 | TTGAAGCCTTGGGTTCTAACCTGTTGCCT (site ATGAAGCCTAG) | – | 0.41
17 | TTGAAGCCTTGGGTTCTAACCTGTTGCCT (site CTGAAGCCTAG) | – | 0.0479
18 | TTGAAGCCTTGGGTTCTAACCTGTTGCCT (site GTGAAGCCTAG) | – | 0.0341
19 | TTGAAGCCTTGGGTTCTAACCTGTTGCCT (site TTGAAGCCTAG) | – | 1.38
20 | TTGAATTCTTGGGTTCTAACCTGTTGCTT (site TTGAATTCTAA) | – | 0.0275
21 | TTGAATTCTTGGGTTCTAACCTGTTGCTT (site TTGTATTCTAG) | – | 0.234

Row | Sequence | recombinant barcode read abundance (log10) [1] | recombinant barcode read abundance (log10) [2]
22 | TTGACACCTTGGGTTCTAACCTGTTGCCT (site GGAGTCACTCC) | – | 0.0713
23 | TTGACACCTTGGGTTCTAACCTGTTGCCT (site TTGACACCTAG) | – | 1.1
24 | TTGACTGCTTGGGTTCTAACCTGTTGCCT (site TTGAATGCTAG) | – | 0.0744
25 | TTGACTGCTTGGGTTCTAACCTGTTGCCT (site TTGACTGCTAG) | – | 0.812
26 | TTGACTGCTTGGGTTCTAACCTGTTGCCT (site TTGAGTGCTAG) | – | 0.0596
27 | TTGACTGCTTGGGTTCTAACCTGTTGCCT (site TTGATTGCTAG) | – | 0.0272
28 | TTGATATCTTGGGTTCTAACCTGTTGCCT (site TTGAAATCTAG) | – | 0.0834
29 | TTGATATCTTGGGTTCTAACCTGTTGCCT (site TTGACATCTAG) | – | 0.264
30 | TTGATATCTTGGGTTCTAACCTGTTGCCT (site TTGAGATCTAG) | – | 0.0244
31 | TTGATATCTTGGGTTCTAACCTGTTGCCT (site TTGATATCTAG) | – | 0.149
32 | TTGATGACTTGGGTTCTAACCTGTTGCCT (site TTGATGACTAG) | – | 1.25
33 | TTGATGACTTGGGTTCTAACCTGTTGCCT (site TTGTAGACTAG) | – | 0.103
34 | TTGCATTCTTGGGTTCTAACCTGTTGCTG (site AAAGGGGCTAG) | – | 0.147
35 | TTGCATTCTTGGGTTCTAACCTGTTGCTG (site TTGCATTCTCA) | – | 0.962
36 | TTGCGGCCTTGGGTTCTAACCTGTTGCAG (site CAAACTACTTG) | – | 0.0363
37 | TTGCGGCCTTGGGTTCTAACCTGTTGCAG (site TTGCGGCCTCT) | – | 1.78
38 | TTGGACACTTGGGTTCTAACCTGTTGCCT (site TTGGACACTAG) | – | 2.33
39 | TTGGACACTTGGGTTCTAACCTGTTGCCT (site TTGGCCACTAG) | – | 0.0571
40 | TTGGACACTTGGGTTCTAACCTGTTGCCT (site TTGGGCACTAG) | – | 0.327
41 | TTGGACACTTGGGTTCTAACCTGTTGCCT (site TTGGTCACTAG) | – | 0.227
42 | TTGGACGCTTGGGTTCTAACCTGTTGCCT (site TTGGACGCTAG) | – | 2.37

Row | Sequence | recombinant barcode read abundance (log10) [1] | recombinant barcode read abundance (log10) [2]
43 | TTGGACGCTTGGGTTCTAACCTGTTGCCT (site TTGGCCGCTAG) | – | 0.335
44 | TTGGACGCTTGGGTTCTAACCTGTTGCCT (site TTGGGCGCTAG) | – | 0.838
45 | TTGGACGCTTGGGTTCTAACCTGTTGCCT (site TTGGTCGCTAG) | – | 0.133
46 | TTGGGTGCTTGGGTTCTAACCTGTTGCCG (site TTGGGTGCTCG) | – | 1.81
47 | TTGGGTGCTTGGGTTCTAACCTGTTGCCG (site TTGGGTTCTAG) | – | 0.0649
48 | TTGGTTCCTTGGGTTCTAACCTGTTGCCT (site TTGGTACCTAG) | – | 0.155
49 | TTGGTTCCTTGGGTTCTAACCTGTTGCCT (site TTGGTCCCTAG) | – | 0.0439
50 | TTGGTTCCTTGGGTTCTAACCTGTTGCCT (site TTGGTGCCTAG) | – | 0.43
51 | TTGGTTCCTTGGGTTCTAACCTGTTGCCT (site TTGGTTCCTAG) | – | 2.07
52 | TTGTAAGCTTGGGTTCTAACCTGTTGCCG (site TTGTAAGCTCG) | – | 0.653
53 | TTGTAAGCTTGGGTTCTAACCTGTTGCCG (site TTGTGAGCTCC) | – | 0.441
54 | TTGTACACTTGGGTTCTAACCTGTTGCCC (site CACATGCCTCA) | – | 0.452
55 | TTGTACACTTGGGTTCTAACCTGTTGCCC (site TTGTACACTGG) | – | 0.996
56 | TTGTCTCCTTGGGTTCTAACCTGTTGCCT (site ATGTCTCCTAG) | – | 0.0689
57 | TTGTCTCCTTGGGTTCTAACCTGTTGCCT (site CTGTCTCCTAG) | – | 0.0237
58 | TTGTCTCCTTGGGTTCTAACCTGTTGCCT (site GTGTCTCCTAG) | – | 0.109
59 | TTGTCTCCTTGGGTTCTAACCTGTTGCCT (site TTGTCTCCTAG) | – | 0.304
60 | TTGTGTTCTTGGGTTCTAACCTGTTGCTT (site TTGTACTCTAA) | – | 0.00637
61 | TTGTGTTCTTGGGTTCTAACCTGTTGCTT (site TTGTGTTCTAA) | – | 0.159
